Data as given in patent publication US20210317134A1, “UBIQUITIN-SPECIFIC-PROCESSING PROTEASE 7 (USP7) MODULATORS AND USES THEREOF” (RAPT THERAPEUTICS, INC., priority 2019, published 2021).
pIC50: −log10 of the molar value.

Molecular target: USP7 (Homo sapiens, UniProt Q93009)
Assay: USP7 inhibitory potency (Table 1)
Type: biochemical

Chain of USP7 (Q93009 whole entry): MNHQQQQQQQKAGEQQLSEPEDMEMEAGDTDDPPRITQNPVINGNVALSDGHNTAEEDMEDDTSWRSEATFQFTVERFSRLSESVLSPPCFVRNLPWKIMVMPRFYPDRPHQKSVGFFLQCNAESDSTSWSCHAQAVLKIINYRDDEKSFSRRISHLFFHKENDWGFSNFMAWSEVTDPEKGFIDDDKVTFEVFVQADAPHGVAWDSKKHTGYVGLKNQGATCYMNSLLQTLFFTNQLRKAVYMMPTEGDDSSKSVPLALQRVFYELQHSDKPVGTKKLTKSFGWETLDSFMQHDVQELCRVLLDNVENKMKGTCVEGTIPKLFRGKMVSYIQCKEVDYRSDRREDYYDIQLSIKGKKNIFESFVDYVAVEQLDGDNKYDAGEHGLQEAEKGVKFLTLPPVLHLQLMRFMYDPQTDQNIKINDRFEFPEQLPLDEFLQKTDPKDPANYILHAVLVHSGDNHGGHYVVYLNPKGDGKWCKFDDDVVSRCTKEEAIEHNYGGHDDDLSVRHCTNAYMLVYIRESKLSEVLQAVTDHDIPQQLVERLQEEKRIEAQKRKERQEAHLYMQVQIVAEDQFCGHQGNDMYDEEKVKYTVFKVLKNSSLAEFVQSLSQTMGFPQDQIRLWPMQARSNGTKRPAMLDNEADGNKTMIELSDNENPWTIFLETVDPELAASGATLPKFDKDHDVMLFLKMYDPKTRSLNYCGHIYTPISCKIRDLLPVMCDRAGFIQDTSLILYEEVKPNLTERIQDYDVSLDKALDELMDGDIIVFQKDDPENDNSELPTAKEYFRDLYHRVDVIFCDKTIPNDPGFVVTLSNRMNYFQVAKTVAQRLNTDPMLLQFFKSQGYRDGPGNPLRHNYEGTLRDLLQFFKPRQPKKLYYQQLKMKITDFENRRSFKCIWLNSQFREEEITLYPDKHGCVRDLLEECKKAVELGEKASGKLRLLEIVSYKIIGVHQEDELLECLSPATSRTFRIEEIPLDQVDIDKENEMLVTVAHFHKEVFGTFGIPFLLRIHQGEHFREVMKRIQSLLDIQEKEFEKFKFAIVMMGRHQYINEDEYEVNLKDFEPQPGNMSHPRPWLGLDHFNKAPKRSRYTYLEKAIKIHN

pIC50 | SMILES
> 6.00 | OCc1cc2ncnc(-c3cc(Cl)cc4c3O[C@@H](c3onc5c3CNCC5)C4)c2s1 [(R)-(4-(5-chloro-2-(4,5,6,7-tetrahydroisoxazolo[4,3-c]pyridin-3-yl)-2,3-dihydrobenzofuran-7-yl)thieno[3,2-d]pyrimidin-6-yl)methanol]
> 6.00 | CCC(O)c1cc2nccc(-c3cc(Cl)cc4c3O[C@@H](c3onc5c3CN(CC)CC5)C4)c2s1 (stereo partly drawn) [1-(7-((R)-5-chloro-2-(5-ethyl-4,5,6,7-tetrahydroisoxazolo[4,3-c]pyridin-3-yl)-2,3-dihydrobenzofuran-7-yl)thieno[3,2-b]pyridin-2-yl)propan-1-ol]
> 6.00 | O[C@]1(c2cc3nccc(-c4cc(Cl)cc5c4O[C@@H](c4onc6c4CNCC6)C5)c3s2)CCOC1 [(R)-3-(7-((R)-5-chloro-2-(4,5,6,7-tetrahydroisoxazolo[4,3-c]pyridin-3-yl)-2,3-dihydrobenzofuran-7-yl)thieno[3,2-b]pyridin-2-yl)tetrahydrofuran-3-ol]
5.00 to 6.00 | O=C(C1Cc2cc(Cl)cc(-c3ccnc4cc(C(F)(F)F)ccc34)c2O1)N1CCNCC1 (centres unmarked) [(5-chloro-7-(7-(trifluoromethyl)quinolin-4-yl)-2,3-dihydrobenzofuran-2-yl)(piperazin-1-yl)methanone]
> 6.00 | Cn1nc2c(c1[C@H]1Cc3cc(Cl)cc(-c4ccnc5ccsc45)c3O1)CNCC2 [(R)-7-(5-chloro-2-(2-methyl-4,5,6,7-tetrahydro-2H-pyrazolo[4,3-c]pyridin-3-yl)-2,3-dihydrobenzofuran-7-yl)thieno[3,2-b]pyridine]
> 6.00 | CC[C@@H](O)c1cc2nccc(-c3cc(Cl)cc4c3O[C@](C)(c3onc5c3CNCC5)C4)c2s1 [(R)-1-(7-((S)-5-chloro-2-methyl-2-(4,5,6,7-tetrahydroisoxazolo[4,3-c]pyridin-3-yl)-2,3-dihydrobenzofuran-7-yl)thieno[3,2-b]pyridin-2-yl)propan-1-ol]
> 6.00 | CC1(CO)Cc2nccc(-c3cc(Cl)cc4c3O[C@@H](C(=O)N3CCNCC3)C4)c2C1 (stereo partly drawn) [((2R)-5-chloro-7-(6-(hydroxymethyl)-6-methyl-6,7-dihydro-5H-cyclopenta[b]pyridin-4-yl)-2,3-dihydrobenzofuran-2-yl)(piperazin-1-yl)methanone]
> 6.00 | O=C1CCCN1Cc1cc2nccc(-c3cc(Cl)cc4c3O[C@@H](C(=O)N3CCNCC3)C4)c2s1 [(R)-1-((7-(5-chloro-2-(piperazine-1-carbonyl)-2,3-dihydrobenzofuran-7-yl)thieno[3,2-b]pyridin-2-yl)methyl)pyrrolidin-2-one]
> 6.00 | CC(O)Cc1cc2nccc(-c3cc(Cl)cc4c3O[C@@H](C(=O)N3CCNCC3)C4)c2s1 (stereo partly drawn) [((2R)-5-chloro-7-(2-(2-hydroxypropyl)thieno[3,2-b]pyridin-7-yl)-2,3-dihydrobenzofuran-2-yl)(piperazin-1-yl)methanone]
> 6.00 | Cn1nc2c(c1[C@H]1Cc3cc(Cl)cc(-c4ncnc5cc(Cl)ccc45)c3O1)CNCC2 [(R)-7-chloro-4-(5-chloro-2-(2-methyl-4,5,6,7-tetrahydro-2H-pyrazolo[4,3-c]pyridin-3-yl)-2,3-dihydrobenzofuran-7-yl)quinazoline]
> 6.00 | CN(C)C1CCN(C(=O)[C@H]2Cc3cc(Cl)cc(-c4ccnc5ccsc45)c3O2)CC1 [(R)-(5-chloro-7-(thieno[3,2-b]pyridin-7-yl)-2,3-dihydrobenzofuran-2-yl)(4-(dimethylamino)piperidin-1-yl)methanone]
> 6.00 | Clc1cc2c(c(-c3ccnc4ccnn34)c1)O[C@@H](c1onc3c1CNCC3)C2 [(R)-3-(5-chloro-7-(pyrazolo[1,5-a]pyrimidin-7-yl)-2,3-dihydrobenzofuran-2-yl)-4,5,6,7-tetrahydroisoxazolo[4,3-c]pyridine]
5.00 to 6.00 | C[C@H]1CNCCN1C(=O)C1Cc2cc(Cl)cc(-c3ccnc4[nH]ccc34)c2O1 (stereo partly drawn) [(5-chloro-7-(1H-pyrrolo[2,3-b]pyridin-4-yl)-2,3-dihydrobenzofuran-2-yl)((S)-2-methylpiperazin-1-yl)methanone]
5.00 to 6.00 | O=C1CCC(c2cc3nccc(-c4cc(Cl)cc5c4O[C@@H](c4onc6c4CNCC6)C5)c3s2)N1 (stereo partly drawn) [5-(7-((R)-5-chloro-2-(4,5,6,7-tetrahydroisoxazolo[4,3-c]pyridin-3-yl)-2,3-dihydrobenzofuran-7-yl)thieno[3,2-b]pyridin-2-yl)pyrrolidin-2-one]
> 6.00 | CC(=O)NCc1cc2nccc(-c3cc(Cl)cc4c3O[C@@H](C(=O)N3CCNCC3)C4)c2s1 [(R)-N-((7-(5-chloro-2-(piperazine-1-carbonyl)-2,3-dihydrobenzofuran-7-yl)thieno[3,2-b]pyridin-2-yl)methyl)acetamide]
4.52 to 5.00 | Cc1cnccc1-c1cc(Cl)cc2c1OC(C(=O)N1CCNCC1)C2 (centres unmarked)
> 6.00 | O=C([C@H]1Cc2cc(Cl)cc(-c3ccnc4[nH]ccc34)c2O1)N1CCNCC1 [(R)-(5-chloro-7-(1H-pyrrolo[2,3-b]pyridin-4-yl)-2,3-dihydrobenzofuran-2-yl)(piperazin-1-yl)methanone]
> 6.00 | CN(C)C1CN(C(=O)[C@H]2Cc3cc(Cl)cc(-c4ccnc5ccsc45)c3O2)C1 [(R)-(5-chloro-7-(thieno[3,2-b]pyridin-7-yl)-2,3-dihydrobenzofuran-2-yl)(3-(dimethylamino)azetidin-1-yl)methanone]

pIC50 | SMILES
> 6.00 | CCN1CCc2noc([C@H]3Cc4cc(Cl)cc(-c5ccnc6ccsc56)c4O3)c2C1 [(R)-3-(5-chloro-7-(thieno[3,2-b]pyridin-7-yl)-2,3-dihydrobenzofuran-2-yl)-5-ethyl-4,5,6,7-tetrahydroisoxazolo[4,3-c]pyridine]
> 6.00 | O=C([C@H]1Cc2cc(Cl)cc(-c3ccnc4ccsc34)c2O1)N1CCC(N2CCCC2)CC1 [(R)-(5-chloro-7-(thieno[3,2-b]pyridin-7-yl)-2,3-dihydrobenzofuran-2-yl)(4-(pyrrolidin-1-yl)piperidin-1-yl)methanone]
4.52 to 5.00 | O=C(C1Cc2cc(Cl)c(F)c(-c3ccnc4[nH]ccc34)c2O1)N1CCNCC1 (centres unmarked)
> 6.00 | CC(=O)NCc1cc2ncnc(-c3cc(Cl)cc4c3O[C@@H](c3onc5c3CNCC5)C4)c2s1 [(R)-N-((4-(5-chloro-2-(4,5,6,7-tetrahydroisoxazolo[4,3-c]pyridin-3-yl)-2,3-dihydrobenzofuran-7-yl)thieno[3,2-d]pyrimidin-6-yl)methyl)acetamide]
5.00 to 6.00 | CC[C@H](O)c1cc2nccc(-c3cc(Cl)cc4c3O[C@](C)(c3onc5c3CNCC5)C4)c2s1 [(S)-1-(7-((S)-5-chloro-2-methyl-2-(4,5,6,7-tetrahydroisoxazolo[4,3-c]pyridin-3-yl)-2,3-dihydrobenzofuran-7-yl)thieno[3,2-b]pyridin-2-yl)propan-1-ol]
5.00 to 6.00 | CN1CCc2noc([C@H]3Cc4cc(Cl)cc(-c5ccnc6cc(C#N)ccc56)c4O3)c2C1 [(R)-4-(5-chloro-2-(5-methyl-4,5,6,7-tetrahydroisoxazolo[4,3-c]pyridin-3-yl)-2,3-dihydrobenzofuran-7-yl)quinoline-7-carbonitrile]
> 6.00 | OCC(O)(CCl)c1cc2nccc(-c3cc(Cl)cc4c3O[C@@H](c3onc5c3CNCC5)C4)c2s1 (stereo partly drawn) [3-chloro-2-(7-((R)-5-chloro-2-(4,5,6,7-tetrahydroisoxazolo[4,3-c]pyridin-3-yl)-2,3-dihydrobenzofuran-7-yl)thieno[3,2-b]pyridin-2-yl)propane-1,2-diol]
> 6.00 | CC1(c2onc3c2CNCC3)Cc2cc(Cl)cc(-c3ccnc4cc(CO)sc34)c2O1 (centres unmarked) [(7-(5-chloro-2-methyl-2-(4,5,6,7-tetrahydroisoxazolo[4,3-c]pyridin-3-yl)-2,3-dihydrobenzofuran-7-yl)thieno[3,2-b]pyridin-2-yl)methanol]
> 6.00 | CC(C)N1CCc2noc([C@H]3Cc4cc(Cl)cc(-c5ccnc6ccsc56)c4O3)c2C1 [(R)-3-(5-chloro-7-(thieno[3,2-b]pyridin-7-yl)-2,3-dihydrobenzofuran-2-yl)-5-isopropyl-4,5,6,7-tetrahydroisoxazolo[4,3-c]pyridine]
5.00 to 6.00 | O=C(C1Cc2cc(Cl)cc(-c3ccnc4cc(CO)ccc34)c2O1)N1CCNCC1 (centres unmarked) [(5-chloro-7-(7-(hydroxymethyl)quinolin-4-yl)-2,3-dihydrobenzofuran-2-yl)(piperazin-1-yl)methanone]
4.52 to 5.00 | O=C(C1Cc2cc(Cl)cc(-c3ccnc4[nH]ccc34)c2O1)N1CCC(O)(Cc2cccnc2)CC1 (centres unmarked) [(5-chloro-7-(1H-pyrrolo[2,3-b]pyridin-4-yl)-2,3-dihydrobenzofuran-2-yl)(4-hydroxy-4-(pyridin-3-ylmethyl)piperidin-1-yl)methanone]
> 6.00 | CC(=O)NC(C)Cc1cc2nccc(-c3cc(Cl)cc4c3O[C@@H](C(=O)N3CCNCC3)C4)c2s1 (stereo partly drawn) [N-(1-(7-((R)-5-chloro-2-(piperazine-1-carbonyl)-2,3-dihydrobenzofuran-7-yl)thieno[3,2-b]pyridin-2-yl)propan-2-yl)acetamide]
> 6.00 | Fc1ccc2c(-c3cc(Cl)cc4c3O[C@@H](c3onc5c3CNCC5)C4)ccnc2c1 [(R)-3-(5-chloro-7-(7-fluoroquinolin-4-yl)-2,3-dihydrobenzofuran-2-yl)-4,5,6,7-tetrahydroisoxazolo[4,3-c]pyridine]
5.00 to 6.00 | COc1ccc2c(-c3cc(Cl)cc4c3OC(C(=O)N3CCNCC3)C4)ccnc2c1 (centres unmarked) [(5-chloro-7-(7-methoxyquinolin-4-yl)-2,3-dihydrobenzofuran-2-yl)(piperazin-1-yl)methanone]
> 6.00 | O=C([C@H]1Cc2cc(Cl)cc(-c3ccnc4c3CCC4)c2O1)N1CCNCC1 [(R)-(5-chloro-7-(6,7-dihydro-5H-cyclopenta[b]pyridin-4-yl)-2,3-dihydrobenzofuran-2-yl)(piperazin-1-yl)methanone]
> 6.00 | OCc1cc2ncnc(-c3cc(Cl)cc4c3O[C@@H](c3onc5c3CNCC5)C4)c2o1 [(R)-(4-(5-chloro-2-(4,5,6,7-tetrahydroisoxazolo[4,3-c]pyridin-3-yl)-2,3-dihydrobenzofuran-7-yl)furo[3,2-d]pyrimidin-6-yl)methanol]
5.00 to 6.00 | N#Cc1cc2nccc(-c3cc(Cl)cc4c3O[C@@H](C(=O)N3CCNCC3)C4)c2o1 [(R)-7-(5-chloro-2-(piperazine-1-carbonyl)-2,3-dihydrobenzofuran-7-yl)furo[3,2-b]pyridine-2-carbonitrile]
